In brackets after ≈: the same amount, converted by molar mass. Where a SMILES comes first, the peptide text is derived from it.

The nature of data set [1]: Therapeutic index, ratio of HC50 for human erythrocytes to MIC for Staphylococcus aureus ATCC 25923. Conditions: read-out: TI.
Data set [2] deals with Bacillus spizizenii. Briefly: Antibacterial activity against Bacillus subtilis ATCC 6633 after 16 hrs by broth microdilution method. Conditions: ATCC 6633, 16 h. It counts as functional.
For data set [3], the system named is Staphylococcus aureus. Briefly: Antibacterial activity against Staphylococcus aureus ATCC 25923 after 16 hrs by broth microdilution method. In kind it is functional. The following applies: ATCC 25923, 16 h.
Data set [4] concerns Escherichia coli. Briefly: Antibacterial activity against Escherichia coli ATCC 25922 after 16 hrs by broth microdilution method. It counts as functional. Conditions: ATCC 25922, 16 h. In general terms: Broth dilution looks for growth in wells or tubes with falling amounts of substance.
Data set [5] can be described thus: Therapeutic index, ratio of HC50 for human erythrocytes to MIC for Bacillus subtilis ATCC 6633. Conditions: read-out: TI.
A short description of data set [6]: Toxicity against human erythrocytes assessed as hemolysis after 1 hr by spectrophotometric analysis. It counts as cell-based, Erythrocyte.

For `C=C(C)[C@@H]1CC[C@]2(C(=O)O)CC[C@]3(C)[C@H](CC[C@@H]4[C@@]5(C)CC[C@H](OC(=O)CCc6cn(CC(=O)N[C@@H](CCCNC(=N)N)C(=O)N[C@@H](CCCNC(=N)N)C(=O)N[C@@H](CCCNC(=N)N)C(=O)N[C@@H](CCCNC(=N)N)C(=O)N[C@@H](CCCNC(=N)N)C(=O)O)nn6)C(C)(C)[C@@H]5CC[C@]43C)[C@@H]12`, the selectivity ratio in data set [1] and in data set [5] was 117 in each case. The MIC is 2.7 µM (≈ 3.83 µg/mL) in data set [2], 2.7 µM (≈ 3.83 µg/mL) in data set [3] and above 88 µM in data set [4]. In data set [6], the HC50 at 1 h was 323 µM.
On to `C[C@H]1[C@H](C)CC[C@]2(C(=O)OCc3cn(CC(=O)N[C@@H](CCCNC(=N)N)C(=O)N[C@@H](CCCNC(=N)N)C(=O)N[C@@H](CCCNC(=N)N)C(=O)N[C@@H](CCCNC(=N)N)C(=O)N[C@@H](CCCNC(=N)N)C(=O)N[C@@H](CCCNC(=N)N)C(=O)N[C@@H](CCCNC(=N)N)C(=O)N[C@@H](CCCNC(=N)N)C(=O)O)nn3)CC[C@]3(C)C(=CC[C@@H]4[C@@]5(C)CC[C@H](O)C(C)(C)[C@@H]5CC[C@]43C)[C@H]12`, for which the selectivity ratio in data set [1] and in data set [5] was 10 in each case. For the same compound, the MIC in data set [2] was 4.2 µM (≈ 7.75 µg/mL); in data set [3] it was 4.2 µM (≈ 7.75 µg/mL); in data set [4], above 68 µM. The 50% haemolytic concentration (HC50) at 1 h in data set [6] is 41 µM.
With `C[C@H]1[C@H](C)CC[C@]2(C(=O)O)CC[C@]3(C)C(=CC[C@@H]4[C@@]5(C)CC[C@H](OC(=O)CCc6cn(CC(=O)N[C@@H](CCCNC(=N)N)C(=O)O)nn6)C(C)(C)[C@@H]5CC[C@]43C)[C@H]12`, the results for the selectivity ratio in data set [1] and in data set [5] were 2 and 8, respectively. Moreover, the values for the MIC in data set [2], in data set [3] and in data set [4] were 19.6 µM (≈ 15.6 µg/mL), 78.6 µM (≈ 62.4 µg/mL) and above 157 µM, respectively. The HC50 at 1 h in data set [6] was determined as 158 µM.
Consider `C[C@H]1[C@H](C)CCC2(C(=O)O)CC[C@]3(C)C(=CC[C@@H]4[C@@]5(C)CC[C@H](OC(=O)CCc6cn(CC(=O)N[C@@H](CCCNC(=N)N)C(=O)N[C@@H](CCCNC(=N)N)C(=O)N[C@@H](CCCNC(=N)N)C(=O)O)nn6)C(C)(C)[C@@H]5CC[C@]43C)[C@H]12` (single isomer, unassigned), for which the selectivity ratio in data set [1] stood at 51; in data set [5], 102. Further, the MIC was 3.5 µM (≈ 3.87 µg/mL) in data set [2], 7 µM (≈ 7.75 µg/mL) in data set [3] and above 113 µM in data set [4]. Further, in data set [6], the 50% haemolytic concentration (HC50) at 1 h turned out to be 360 µM.
On to `NC(N)=NCCC[C@H](NC(=O)[C@@H](N)CCCN=C(N)N)C(=O)O` (H-Arg-Arg-OH), for which the MIC in data set [2], in data set [3] and in data set [4] was above 1520 µM throughout.
As for `C=C(C)[C@@H]1CC[C@]2(C(=O)O)CC[C@]3(C)[C@H](CC[C@@H]4[C@@]5(C)CC[C@H](OC(=O)CCc6cn(CC(=O)N[C@@H](CCCNC(=N)N)C(=O)O)nn6)C(C)(C)[C@@H]5CC[C@]43C)[C@@H]12`, the MIC in data set [2] was 19.6 µM (≈ 15.6 µg/mL); in data set [3], above 157 µM; in data set [4], above 157 µM. Also, in data set [5], the selectivity ratio is above 51. Besides, in data set [6], the HC50 at 1 h was above 1010 µM.
With `C[C@H]1[C@H](C)CC[C@]2(C(=O)OCc3cn(CC(=O)N[C@@H](CCCNC(=N)N)C(=O)N[C@@H](CCCNC(=N)N)C(=O)N[C@@H](CCCNC(=N)N)C(=O)N[C@@H](CCCNC(=N)N)C(=O)N[C@@H](CCCNC(=N)N)C(=O)O)nn3)CC[C@]3(C)C(=CC[C@@H]4[C@@]5(C)CC[C@H](O)C(C)(C)[C@@H]5CC[C@]43C)[C@H]12`, the selectivity ratio in data set [1] amounted to 6; in data set [5] it was 11. For the same compound, the MIC in data set [2] was 2.8 µM (≈ 3.85 µg/mL); in data set [3] it was 5.7 µM (≈ 7.85 µg/mL); in data set [4], above 91 µM. For the same compound, the HC50 at 1 h in data set [6] turned out to be 25 µM.
For the compound `C[C@H]1[C@H](C)CC[C@]2(C(=O)OCc3cn(CC(=O)N[C@@H](CCCNC(=N)N)C(=O)O)nn3)CC[C@]3(C)C(=CC[C@@H]4[C@@]5(C)CC[C@H](O)C(C)(C)[C@@H]5CC[C@]43C)[C@H]12`, the selectivity ratio came out at 8 in data set [1] and 16 in data set [5]. In addition, the values for the MIC in data set [2], in data set [3] and in data set [4] were 5.2 µM (≈ 3.91 µg/mL), 10.4 µM (≈ 7.82 µg/mL) and above 166 µM, respectively. Moreover, the HC50 at 1 h in data set [6] amounted to 83 µM.
Regarding `N=C(N)NCCC[C@H](N)C(=O)O` [ARGININE], the MIC in data set [2], in data set [3] and in data set [4] was above 2890 µM throughout.
Consider `C[C@H]1[C@H](C)CC[C@]2(C(=O)OCc3cn(CC(=O)N[C@@H](CCCNC(=N)N)C(=O)N[C@@H](CCCNC(=N)N)C(=O)O)nn3)CC[C@]3(C)C(=CC[C@@H]4[C@@]5(C)CC[C@H](O)C(C)(C)[C@@H]5CC[C@]43C)[C@H]12`, for which the selectivity ratio in data set [1] and in data set [5] was 11 throughout. In addition, the figures for the MIC in data set [2], in data set [3] and in data set [4] were 4.3 µM (≈ 3.91 µg/mL), 4.3 µM (≈ 3.91 µg/mL) and above 138 µM, respectively. Besides, the HC50 at 1 h in data set [6] is 49 µM.
Take `N=C(N)NCCC[C@H](NC(=O)[C@H](CCCNC(=N)N)NC(=O)[C@H](CCCNC(=N)N)NC(=O)[C@H](CCCNC(=N)N)NC(=O)[C@H](CCCNC(=N)N)NC(=O)[C@H](CCCNC(=N)N)NC(=O)[C@H](CCCNC(=N)N)NC(=O)[C@@H](N)CCCNC(=N)N)C(=O)O`: the MIC was determined as 12.3 µM (≈ 15.6 µg/mL) in data set [2], 24.6 µM (≈ 31.2 µg/mL) in data set [3] and 197 µM (≈ 250 µg/mL) in data set [4].
On the same counts, the results for `C=C(C)[C@@H]1CC[C@]2(C(=O)OCc3cn(CC(=O)N[C@@H](CCCNC(=N)N)C(=O)N[C@@H](CCCNC(=N)N)C(=O)N[C@@H](CCCNC(=N)N)C(=O)N[C@@H](CCCNC(=N)N)C(=O)N[C@@H](CCCNC(=N)N)C(=O)N[C@@H](CCCNC(=N)N)C(=O)N[C@@H](CCCNC(=N)N)C(=O)N[C@@H](CCCNC(=N)N)C(=O)O)nn3)CC[C@]3(C)[C@H](CC[C@@H]4[C@@]5(C)CC[C@H](O)C(C)(C)[C@@H]5CC[C@]43C)[C@@H]12` are 4.2 µM (≈ 7.75 µg/mL), 4.2 µM (≈ 7.75 µg/mL) and above 68 µM.
On the same counts, the results for `C[C@H]1[C@H](C)CC[C@]2(C(=O)O)CC[C@]3(C)C(=CC[C@@H]4[C@@]5(C)CC[C@H](OC(=O)CCc6cn(CC(=O)N[C@@H](CCCNC(=N)N)C(=O)N[C@@H](CCCNC(=N)N)C(=O)O)nn6)C(C)(C)[C@@H]5CC[C@]43C)[C@H]12` are 4.1 µM (≈ 3.9 µg/mL), 8.2 µM (≈ 7.79 µg/mL) and above 131 µM.
For H-RRRRR-OH, in that order: 313 µM, above 627 µM and above 627 µM.
In the case of `C[C@H]1[C@H](C)CCC2(C(=O)O)CC[C@]3(C)C(=CC[C@@H]4[C@@]5(C)CC[C@H](OC(=O)CCc6cn(CC(=O)N[C@@H](CCCNC(=N)N)C(=O)N[C@@H](CCCNC(=N)N)C(=O)N[C@@H](CCCNC(=N)N)C(=O)N[C@@H](CCCNC(=N)N)C(=O)N[C@@H](CCCNC(=N)N)C(=O)O)nn6)C(C)(C)[C@@H]5CC[C@]43C)[C@H]12` (single isomer, unassigned), the MIC was 2.7 µM (≈ 3.83 µg/mL) in data set [2], 5.5 µM (≈ 7.8 µg/mL) in data set [3] and above 88 µM in data set [4].
For `C[C@H]1[C@H](C)CC[C@]2(C(=O)O)CC[C@]3(C)C(=CC[C@@H]4[C@@]5(C)CC[C@H](O)C(C)(C)[C@@H]5CC[C@]43C)[C@H]12` [URSOLIC ACID], in that order: 68 µM (≈ 31.1 µg/mL), 137 µM (≈ 62.6 µg/mL) and above 1100 µM.
For `N=C(N)NCCC[C@H](NC(=O)[C@H](CCCNC(=N)N)NC(=O)[C@@H](N)CCCNC(=N)N)C(=O)O` (H-Arg-Arg-Arg-OH), in that order: above 1030 µM, above 1030 µM and above 1300 µM.

As usually defined, the MIC is the least concentration at which growth counts as inhibited. Read a high MIC as a need for much substance. Broadly, the HC50 is the concentration that lyses half of the red blood cells.

Values taken from ChEMBL document CHEMBL3813667, “Triterpene sapogenin-polyarginine conjugates exhibit promising antibacterial activity against Gram-positive strains” (Bioorg Med Chem, 2016).
